Test results as given in patent US20070111118A1, “Electrophotographic photoconductor and image-forming apparatus” (priority 2005, published 2007).

Experiment: Solubility of the hole-transfer agent in triglyceride oleate
Type: physicochemical
Conditions: 25° C., g per 100 g of triglyceride oleate
From the text: Here, the term “solubility in triglyceride oleate (% by weight)” means the amount of a solvent (hole-transfer agent) (g) with reference to 100 g of triglyceride oleate.

SMILES	HTM Solubility [w %]
CC(C)c1ccc(N(c2ccccc2)c2cccc(N(c3ccccc3)c3ccc(C(C)C)cc3)c2)cc1 [HTM-1]	11.1
CCc1cccc(C)c1N(c1ccccc1)c1ccc(/C=C/c2ccc(/C=C/c3ccc(N(c4ccccc4)c4c(C)cccc4CC)cc3)cc2)cc1 [HTM-8]	2.1
Cc1ccccc1N(c1ccc(-c2ccc(N(c3ccccc3C)c3ccccc3/C=C/c3ccccc3)cc2)cc1)c1ccccc1/C=C/c1ccccc1 [HTM-9]	37.0
CCCCc1ccc(N(c2ccc(C)cc2)c2c(N(c3ccc(C)cc3)c3ccc(CCCC)cc3)c3ccccc3c3ccccc23)cc1 [HTM-10]	2.8
